Earlier results, collected in paper PMC6920808, “Preclinical Evaluation of UDCA-Containing Oral Formulation in Mice for the Treatment of Wet Age-Related Macular Degeneration” (Pharmaceutics, 2019).

What was measured:
laser-treated rat model = system: laser-treated rat model; parameters: method as in PMID 20565307; settings: intraperitoneally injected, ref [4]
retina = system: retina; parameters: method as in earlier work; settings: intravitreally injected, dose higher than 5 μg of TUDCA (5 mg/mL), Balb/C mice, ref [33]
[1] = parameters: method as in PMID 6479887, PMID 30319399; settings: ref [17],[18]

A- and B-wave amplitudes in the ERG and outer nuclear layer thickness (retina)	pKa [1]	Structure (SMILES)	CNV size and vascularity (laser-treated rat model)	early VEGF elevation in the retina (laser-treated rat model)
reduced		C[C@H](CCC(=O)NCCS(=O)(=O)O)[C@H]1CC[C@H]2[C@@H]3[C@@H](O)C[C@@H]4C[C@H](O)CC[C@]4(C)[C@H]3CC[C@]12C [TUDCA, tauroursodeoxycholic acid]	reduction	effectively suppress
	around 5.0	C[C@H](CCC(=O)O)[C@H]1CC[C@H]2[C@@H]3[C@@H](O)C[C@@H]4C[C@H](O)CC[C@]4(C)[C@H]3CC[C@]12C [UDCA, 3α,7β-dihydroxy-5β-cholanoic acid]	reduction	effectively suppress
